# Measured values taken from patent US20050019765A1, “Methods for treating disorders of the nervous and reproductive systems” (priority 2001, published 2005).
# Test system: murine sperm
# Assay: chlortetracycline assay for capacitation of murine sperm in vitro
# Type: cell-based
# Source text: ABCA1 generates HDL by transferring cholesterol onto apoprotein-A1 (apoA1) in a process known as cholesterol efflux, which is also an essential component of male fertility. Sperm are made in the testes and released into the epididymis, where they await ejaculation into the female reproductive tract. Although differentiated, epididymal sperm are not capable of fertilization and must first complete their maturation in the female reproductive tract. This maturation process is known as capacitation and is known to require efflux of cholesterol from the sperm plasma membrane. How this occurs at the molecular level is not well understood. The present invention relies in part on the discovery that ABCA1 is highly expressed in the testes (being present in Sertoli and Leydig cells as well as in differentiating spermatids). […] In accordance with the present invention, ABCA1 is also present in epididymal sperm where it can act to transport cholesterol during capacitation. In vivo, follicular HDL is an endogenous cholesterol acceptor for capacitating sperm, and HDL can stimulate capacitation in vitro. In accordance with the present invention, because cholesterol efflux through ABCA1 is dependent upon apoA1 the ability of apoA1 to stimulate capacitation of murine sperm in vitro was tested using a chlortetracycline assay.
substance,measurement,value
"de-lipidated apoA1: apoprotein-A1, the acceptor onto which ABCA1 transfers cholesterol in cholesterol efflux",ability to stimulate capacitation of murine sperm,capacitates sperm in a dose-dependent manner
